# Where a SMILES comes first, the peptide text is derived from it.
# System: RAW 264.7 normal macrophages
# Type: cell-based
# Description: (4) detection of effects of respective components (WGPH-I, WGPH-II, and WGPH-III) on the proliferation activity of RAW 264.7 normal macrophages by a methyl thiazolyl tetrazolium (MTT) assay
# RAW 264.7 macrophages in a logarithmic growth phase are taken and prepared into a cell suspension of 3×10^4 cells/mL in a RPIM 1640 culture medium containing 10% FBS. Sample wells are set in a 96-well plate (also referred to as 96-well tissue culture plates), and 100 microliters (μL) of cell suspension are added to each sample well, and the cells are cultured in a cell incubator for 12 h to make the cells adhere to the wall. After removing the culture medium in the sample wells, different components WGPH-I (>3 kDa), WGPH-II (1˜3 kDa), and WGPH-III (<1 kDa) are dissolved in RPIM 1640 culture medium containing 10% FBS to prepare different concentrations of oligopeptide culture medium (0, 50, 100, 200, and 300 μg/mL) respectively, and then added to respective sample wells, 100 μL per well. A blank well is set, and compared with the sample wells, there is no cell, with 100 μL PBS instead of the oligopeptide culture medium. A control well is set, compared with the sample wells, there is cells, with 100 μL PBS instead of oligopeptide culture medium. […] The absorbance is measured at a wavelength of 570 nanometers (nm) in the microplate reader. […]
compound,measurement,value
C[C@H](N)C(=O)N1CCC[C@H]1C(=O)N[C@@H](CCC(=O)O)C(=O)N1CCC[C@H]1C(=O)N[C@@H](CCC(=O)O)C(=O)N1CCC[C@H]1C(=O)N[C@@H](C)C(=O)N[C@@H](Cc1ccccc1)C(=O)O [oligopeptide] (H-APEPEPAF-OH),effect on the proliferation activity of macrophages,no effect
